Assay results as given in patent publication US20080176787A1, “Parathyroid hormone analogues and methods of use” (priority 2005, published 2008).
Positions of bridges follow the written chain, without caps; N, C: chain ends. Residues, ends and D or L forms follow the SMILES beside them.

Legend:
rats = test: Rat oncogenicity study, 104 weeks subcutaneous; assay type: in vivo; details: 0.5, 5, 30, and 50 μg/kg/day SC
Protocol: Prior art PTHs cause osteosarcomas in animals if administered over a course of two years. The PTH peptides of the present invention, including Ostabolin-C™ and PTH 1-30, are administered subcutaneously to rats for 104 weeks at doses of 0.5, 5, 30, and 50 μg/kg/day. The test article is administered subcutaneously. […] This difference could be due to the different amino acids sequences and/or to the different signalling pathways activated by the PTH molecules.

[1] = test system: post-menopausal women with low bone mineral density; test: Dose/weight cutoff subgroup analysis and modeling of Phase II 30 and 45 μg cohorts; assay type: in vivo, human; design: Mean LS-BMD / FN-BMD / TH-BMD / P1NP / CTx: unit not given here
Protocol: The effect of the dose optimization strategy was evaluated by performing subgroup analyses using actual data from the 30 and 45 μg cohorts of the study (i.e. creation of a new subgroup by combining all patients below the weight cutoff from the 30 μg dose group with all patients above the weight cutoff from the 45 μg dose group, shown in the table below).
A variety of new subgroups were created out of the patients who participated in the Phase II clinical trial. The groups from Phase II are shown above, where each group received a single dose, either 7.5 μg, 15 μg, 30 μg, 45 μg, or placebo. The 30 μg and 45 μg dose groups were re-grouped, according to the weight of the patient, and over 100 new sub-groups were created. This approach of creating new sub-groups out of dosages which are relatively close to each other, is a novel way of conducting Phase II studies.
For the 105 patients who were originally given 30 or 45 μg, new groups were created by utilizing multiple weight cut-offs in increments of 0.5 kg. For example, one new group had the weight cut-off at 59 kg, meaning that every patient from the original low dose (30 μg) group who weighed less than 59 kg and every patient who weighed more than 59 kg from the original high dose (45 μg) group formed a new cohort. This new cohort represents a dose/weight cut-off of 59 kg, a group in which patients weighing less than 59 kg receive the low dose (30 μg) and patients weighing more than 59 kg receive the high dose (45 μg). Another example can be illustrated using a weight cutoff of 68 kg. Such a group would include all those patients who weigh less than 68 kg and who originally received the low dose (30 μg) as well as all those patients who weigh more than 68 kg and who originally received the high dose (45 μg). By using this method, over 100 separate cohorts were created by altering the dose/weight cut-off in increments of 0.5 kg. A summary of the data generated by these new dose/weight cut-off cohorts, using 68 kg and 59 kg as the dose/weight cut-off, is shown in the table below.
The table above illustrates the actual clinical profile obtained for two dose/weight cutoffs (59 kg which produces a higher exposure profile since more patients receive the higher dose and 68 kg in which more patients receive the lower dose). […] One problem with simple subgroup analysis is that endpoints with a small number of events can skew the observed profile because of large changes in incidence when one of these events moves from one side of the weight cutoff to the other. Therefore, the dose/weight cutoff methodology was applied systematically to the data from the 30 and 45 μg dose groups starting at the lowest weight patient in the study (corresponds to the 45 μg profile because everyone receives the high dose) and increasing the cutoff by 0.5 kg increments through 100 kg (corresponding to the 30 μg profile because everyone receives the low dose). The multiple cutoff profiles thus obtained when graphed can then smooth out the effect of individual events as illustrated for the effect on hypercalcemia. The effect of weight cutoff on clinical profile can then be modeled to eliminate the skewing effects of individual data points as illustrated in FIG. 37-40. This approach has been applied to primary and secondary endpoints in the study.
An important benefit of this modeling is that it is possible to project a clinical profile for a specific weight cutoff/dose exposure window with a high degree of accuracy since the effect of individual events is eliminated. The anticipated hypercalcemia and lumbar spine BMD profile for a 68 kg cutoff is illustrated in the table below, which compares the modeled hypercalcemia and lumbar spine BMD changes and the actual Phase II data for the 68 kg weight cutoff. It will also be possible to model the effects of even narrower exposure windows by using multiple dose cutoffs and different doses.

[2] = test system: gonad-intact cynomolgus monkeys; test: 52-week (12 months) daily subcutaneous study in gonad-intact young cynomolgus monkeys: bone mass, histomorphometry, % cortical porosity; assay type: in vivo
Protocol: The peptide [Leu^27]cyclo[Glu^22-Lys^26]-hPTH-(1-31)-NH2 Ostabolin-C™ was administered daily by subcutaneous injection to gonad-intact cynomolgus monkeys (4/sex/group) at dose levels of 0, 2, 10 and 25 μg/kg for 52 weeks. Monkeys were 30 to 40 months of age (2.3-3.5 kg) at treatment start. Tibiae were retained for histomorphometry following labeling with calcein green 15 and 5 days prior to euthanasia. Bone mass, as measured by DXA (dual-energy x-ray absorptiometry) and QCT (quantitative computed tomography), was increased at the lumbar spine, femur and tibia. Changes in vertebral BMD (bone mineral density) translated into significant increases in bone strength. […] Tibial cancellous bone volume increased by more than 50% in all the peptide [Leu^27]cyclo[Glu^22-Lys^26]-hPTH-(1-31)-NH2 treated groups compared to controls and in the tibial mid-diaphysis, increases in cortical width and relative cortical area with concurrent decreases in medullary area were observed. […] Increases in indices of bone formation were associated with decreases in indices of bone resorption (decreased bone resorption markers, decreased osteoclast surface area, minimal cortical porosity), consistent with the uncoupling of these events. This combination of anabolic and anti-catabolic actions may have significant therapeutic value in the treatment of osteoporosis.
Comparative data regarding increase in cortical bone porosity in monkey subjects using Ostabolin C at a variety of doses and using the prior art PTHs 1-34 is shown below.

[3] = test system: post-menopausal women with low bone mineral density; test: Phase II clinical study of subcutaneous Ostabolin-C in post-menopausal women with low BMD (BMD, bone markers, serum calcium, side effects)
From the text: A four month Phase II clinical study was undertaken to investigate the safety, tolerability and efficacy of Ostabolin-C™ in post-menopausal women with low bone mineral density (BMD). […] The clinical protocol is a 16-week phase II randomized, double-blind, placebo-controlled, parallel group, dose finding study to investigate the safety, tolerability and efficacy of Ostabolin-C™ in post-menopausal women with low bone mineral density (BMD). In this study, 261 patients underwent four months of daily dosing of placebo and four active groups. The active groups included daily administration of Ostabolin-C™ in doses of 7.5, 15, 30, and 45 μg. Ostabolin-C™ is formulated as a clear, colorless liquid provided in pre-filled syringes and injected subcutaneously (SC). Subjects self-administer SC 0.1 mL injections of their assigned dose of Ostabolin-C™ 7.5, 15, 30, and 45 μg or placebo daily for 16 weeks in rotating quadrants of the abdomen. The subjects were post-menopausal women (for at least 5 years) with moderate osteoporosis.
The key endpoints for the study include change in mean BMD at the lumbar spine, as assessed by dual energy x-ray absorptiometry (DEXA), and measured by change from the Baseline visit. The Baseline visit is the first visit of the patient, before undergoing any treatment. Secondary efficacy endpoints include the following, as measured by change from Baseline visit:
DEXA: Bone formation and resorption markers: • Mean femoral neck BMD • Serum osteocalcin • Mean trochanter BMD • Serum amino terminal pro-peptide of type 1 pro-collagen (P1NP) • Mean total hip BMD • Mean radial BMD (distal and midshaft) • Bone specific alkaline phosphatase (BSAP) • Bone mineral content (BMC) • Serum C-telopeptide (CTx) • Bone area • Serum N-telopeptide (NTx)

Q: For “PTH(1-30) (SVSEIQLMHNLGKHLNSMERVEWLRKKLQD; Parathyroid hormone; UniProt P01270 32-61, looked up, fragment) [PTH 1-30]”, which “incidence of osteosarcomas compared to prior art PTH peptides” value (rats) is on record?
A: The value was “lower incidences of osteosarcomas”.

Q: For `CC[C@H](C)[C@H](NC(=O)[C@H](CCC(=O)O)NC(=O)[C@H](CO)NC(=O)[C@@H](NC(=O)[C@@H](N)CO)C(C)C)C(=O)N[C@@H](CCC(N)=O)C(=O)N[C@@H](CC(C)C)C(=O)N[C@@H](CCSC)C(=O)N[C@@H](Cc1c[nH]cn1)C(=O)N[C@@H](CC(N)=O)C(=O)N[C@@H](CC(C)C)C(=O)NCC(=O)N[C@@H](CCCCN)C(=O)N[C@@H](Cc1c[nH]cn1)C(=O)N[C@@H](CC(C)C)C(=O)N[C@@H](CC(N)=O)C(=O)N[C@@H](CO)C(=O)N[C@@H](CCSC)C(=O)N[C@@H](CCC(=O)O)C(=O)N[C@@H](CCCNC(=N)N)C(=O)N[C@H](C(=O)N[C@H]1CCC(=O)NCCCC[C@@H](C(=O)N[C@@H](CC(C)C)C(=O)N[C@@H](CC(C)C)C(=O)N[C@@H](CCC(N)=O)C(=O)N[C@@H](CC(=O)O)C(=O)N[C@H](C(N)=O)C(C)C)NC(=O)[C@H](CCCNC(=N)N)NC(=O)[C@H](CC(C)C)NC(=O)[C@H](Cc2c[nH]c3ccccc23)NC1=O)C(C)C` [Ostabolin-C, [Leu^27]cyclo[Glu^22-Lys^26]-PTH-(1-31)-NH2] (H-SVSEIQLMHNLGKHLNSMERVEWLRKLLQDV-NH2; lactam 22-26), which CTx ([1]; 59 kg cut) is on record?
A: The CTx was 57.5.

Q: And the FN-BMD ([1]; 59 kg cut)?
A: The FN-BMD was 1.5.

Q: And the “LS-BMD 3%” value ([1]; 59 kg cut)?
A: Its value is 80.8.

Q: What about the “LS-BMD 6%” value ([1]; 59 kg cut) of the same compound?
A: Its value is 28.8.

Q: What about the P1NP ([1]; 59 kg cut) of the same compound?
A: Its P1NP is 143.5.

Q: And the TH-BMD ([1]; 59 kg cut)?
A: Its TH-BMD is 0.69.

Q: What about the “Mean LS-BMD” value ([1]; 59 kg cut (30 μg below, 45 μg above)) of the same compound?
A: Its value is 4.95.

Q: And the CTx ([1]; 68 kg cut)?
A: The CTx was 32.1.

Q: What about the FN-BMD ([1]; 68 kg cut) of the same compound?
A: Its FN-BMD is 0.29.

Q: And the “LS-BMD 3%” value ([1]; 68 kg cut)?
A: The value was 78.0.

Q: And the “LS-BMD 6%” value ([1]; 68 kg cut)?
A: The value was 29.3.

Q: What about the P1NP ([1]; 68 kg cut) of the same compound?
A: Its P1NP is 132.1.

Q: And the TH-BMD ([1]; 68 kg cut)?
A: Its TH-BMD is 0.40.

Q: What about the “Mean LS-BMD” value ([1]; 68 kg cut (30 μg below, 45 μg above)) of the same compound?
A: Its value is 4.65.

Q: What about the “LS-BMD 3%” value ([1]; 68 kg cutoff, modeled) of the same compound?
A: The value was 76.5.

Q: What about the “Mean LS-BMD” value ([1]; 68 kg cutoff, modeled) of the same compound?
A: The value was 4.57.

Q: And the “Bone mass (DXA, QCT) at lumbar spine, femur and tibia” value ([2]; 2, 10, 25 μg/kg SC daily, 52 weeks)?
A: The value was “increased”.

Q: What about the osteoclast surface ([2]; 52 weeks) of the same compound?
A: Its osteoclast surface is “significant reduction”.

Q: What about the “Tibial cancellous bone volume increase compared to controls” value ([2]; all treated groups (2, 10, 25 μg/kg SC daily, 52 weeks)) of the same compound?
A: The value was “more than 50%”.

Q: And the “bone resorption stimulation as % of expected effect of 20 μg Forteo” value ([3]; 30 μg)?
A: The value was “approximately 50%”.

Q: What about the CTx ([3]; 30 μg (4 months)) of the same compound?
A: Its CTx is 1400 pM/L.

Q: What about the “FN-BMD (%)” value ([3]; 30 μg (4 months)) of the same compound?
A: Its value is −0.05%.

Q: What about the “LS-BMD (%)” value ([3]; 30 μg (4 months)) of the same compound?
A: Its value is 3.6%.

Q: What about the “LS-BMD (%), subset with LS-BMD T score < −2.5” value ([3]; 30 μg (4 months)) of the same compound?
A: Its value is 4.51%.

Q: What about the P1NP ([3]; 30 μg (4 months)) of the same compound?
A: The P1NP was 50.0 µg/L.

Q: And the “TH-BMD (%)” value ([3]; 30 μg (4 months))?
A: Its value is 0.06%.

Q: What about the CTx ([3]; 30 ug, 4 months) of the same compound?
A: The CTx was 30.6.

Q: What about the FN-BMD ([3]; 30 ug, 4 months) of the same compound?
A: The FN-BMD was −0.06.

Q: And the “LS-BMD 3%” value ([3]; 30 ug, 4 months)?
A: The value was 59.6.

Q: And the “LS-BMD 6%” value ([3]; 30 ug, 4 months)?
A: Its value is 19.1.

Q: What about the “Mean LS-BMD” value ([3]; 30 ug, 4 months) of the same compound?
A: The value was 3.72.

Q: And the P1NP ([3]; 30 ug, 4 months)?
A: Its P1NP is 117.2.

Q: And the TH-BMD ([3]; 30 ug, 4 months)?
A: Its TH-BMD is 0.07.

Q: And the “BMD in the lumbar spine” value ([3]; 45 μg)?
A: The value was “increase in BMD”.

Q: And the CTx ([3]; 45 μg (4 months))?
A: The CTx was 2900 pM/L.

Q: And the “FN-BMD (%)” value ([3]; 45 μg (4 months))?
A: Its value is 2.75%.

Q: And the “LS-BMD (%)” value ([3]; 45 μg (4 months))?
A: The value was 5.2%.

Q: What about the “LS-BMD (%), subset with LS-BMD T score < −2.5” value ([3]; 45 μg (4 months)) of the same compound?
A: The value was 5.9%.

Q: And the P1NP ([3]; 45 μg (4 months))?
A: The P1NP was 79.5 µg/L.

Q: What about the “TH-BMD (%)” value ([3]; 45 μg (4 months)) of the same compound?
A: The value was 1.45%.

Q: And the “Mean % Change In Femoral Neck (BMD)” value ([3]; 45 μg For 15 Weeks)?
A: Its value is 2.75%.

Q: What about the “Mean % Change In Total Hip (BMD)” value ([3]; 45 μg For 15 Weeks) of the same compound?
A: The value was 1.44%.

Q: What about the “Mean % Change In Trochanter (BMD)” value ([3]; 45 μg For 15 Weeks) of the same compound?
A: The value was 2.24%.

Q: What about the CTx ([3]; 45 ug, 4 months) of the same compound?
A: The CTx was 60.3.

Q: What about the FN-BMD ([3]; 45 ug, 4 months) of the same compound?
A: The FN-BMD was 3.0.

Q: What about the “LS-BMD 3%” value ([3]; 45 ug, 4 months) of the same compound?
A: The value was 79.5.

Q: What about the “LS-BMD 6%” value ([3]; 45 ug, 4 months) of the same compound?
A: The value was 36.4.

Q: What about the “Mean LS-BMD” value ([3]; 45 ug, 4 months) of the same compound?
A: Its value is 5.59.

Q: What about the P1NP ([3]; 45 ug, 4 months) of the same compound?
A: Its P1NP is 160.5.

Q: What about the TH-BMD ([3]; 45 ug, 4 months) of the same compound?
A: The TH-BMD was 1.6.

Q: And the “cortical BMD in distal and mid-shaft radius compared to placebo and Forteo” value ([3]; 7.5, 15, and 30 μg)?
A: Its value is “increases cortical BMD”.

Q: And the “lumbar spine BMD” value ([3]; 7.5, 15, and 30 μg daily, 15 weeks)?
A: The value was “increase in lumbar spine BMD”.

Q: And the “hip, femoral neck, and trochanter BMD” value ([3]; low doses, 15 weeks)?
A: Its value is “mild BMD increase”.
